PMC2263054, “Functional evolution of the vitamin D and pregnane X receptors” (BMC Evolutionary Biology, 2007)

Key:
[1] = system: ethoxyresorufin O-deethylase (EROD) activity (CYP1A-like activity); assay: EROD assay in zebrafish primary hepatocytes; conditions: zebrafish primary hepatocytes; DIM at concentrations of 2 μM and greater
Protocol: (§1) The cells are cultured at 26°C in ambient atmosphere.

EROD activity = assay: EROD assay in sea lamprey primary hepatocytes; conditions: 24–48 hr exposure
[2] = system: testosterone 6β-hydroxylation activity (CYP3A-like activity); assay: testosterone hydroxylation (HPLC) in zebrafish primary hepatocytes
Protocol: as §1
(§2) 100 μL of sample, calibration standard, or quality material standard were pipetted into separate microcentrifuge tubes and mixed with 100 μL of methanol. Samples were vortexed and centrifuged at 13,000 rpm for 4 min. The supernatant was then injected into the HPLC.
(§3) The flow rate was 1.2 mL/min and total run time was 25 min.

[3] = system: 6β- and 12α-hydroxylation of testosterone; assay: testosterone hydroxylation (HPLC) in African clawed frog primary hepatocytes; type: cell-based, Xenopus laevis; conditions: relative to vehicle control
Protocol: Xenopus laevis primary hepatocytes were cultured by a protocol adapted from a published report. Frogs are sacrificed with MS-222, rinsed with 70% ethanol, and the liver lobes perfused via the heart, initially with 375 mL Barth (88 mM NaCl, 1 mM K2SO4, and 10 mM HEPES-NaOH, pH 7.4) containing 0.82 mM MgCl2 and 0.1 mg/mL heparin, and then with 25 mL Barth containing 2.22 mM Ca(NO3)2, 2.74 mM CaCl2, and 200 U/mL type I collagenase (Worthington Chemicals, Lakewood, NJ). Livers are minced to fine pieces in 12.5 mL Barth-collagenase solution and then incubated for 10 min at room temperature, periodically disaggregating the liver pieces with a Pasteur pipette. The liver cells are then placed on a shaking incubator for 5 min at room temperature, followed by another 10 min of periodic pipetting to complete disaggregation. Cells are then filtered through a 130 μm Nitex nylon mesh (Fisher Scientific), following by spinning at 500 g for 5 min at 4°C. The supernatant is then aspirated and diluted to 50 mL with Barth plus MgCl2 and then allowed to settle while cooled in ice for 30 min. The supernatant is removed, and the cellular pellet is resuspended and subjected to one more round of nylon mesh filtration, dilution in Barth plus MgCl2, and settling while cooled in ice. The supernatant is removed and the remaining cells are washed once with Barth plus MgCl2 and then centrifuged at 500 g for 5 min at 4°C. The cells are then resuspended in 0.6 × Coon's Modified Ham's F-12 medium (Invitrogen) supplemented with 0.1 × Barth (88 mM NaCl, 1 mM K2SO4, 10 mM HEPES), 200 U/mL penicillin G, 100 μg/mL streptomycin sulfate, 2 mM glutamine, 0.2% glucose, and 10 μg/mL bovine insulin (Calbiochem), with the final pH adjusted to 7.5. […] Cells are cultured at 20°C in ambient atmosphere.
Testosterone metabolites were identified and quantitated by HPLC. […] The supernatant was then injected into the HPLC.

[4] = system: testosterone 6β-hydroxylation; assay: testosterone hydroxylation (HPLC) in sea lamprey primary hepatocytes; type: cell-based; conditions: concentration ranges per compound
Protocol: as §2, §3

zebrafish PXR = conditions: ref [29],[53]; cited from earlier work
Xenopus laevis VDR = target: T1, Xenopus laevis VDR (Xenopus laevis, UniProt O13124); assay: luciferase reporter transactivation assay in HepG2-NTCP cells, GAL4/xlVDR LBD chimera with tk-UAS-Luc; type: cell-based; conditions: screening for activators, at least three concentrations of each drug
T1 sequence (O13124 90-422): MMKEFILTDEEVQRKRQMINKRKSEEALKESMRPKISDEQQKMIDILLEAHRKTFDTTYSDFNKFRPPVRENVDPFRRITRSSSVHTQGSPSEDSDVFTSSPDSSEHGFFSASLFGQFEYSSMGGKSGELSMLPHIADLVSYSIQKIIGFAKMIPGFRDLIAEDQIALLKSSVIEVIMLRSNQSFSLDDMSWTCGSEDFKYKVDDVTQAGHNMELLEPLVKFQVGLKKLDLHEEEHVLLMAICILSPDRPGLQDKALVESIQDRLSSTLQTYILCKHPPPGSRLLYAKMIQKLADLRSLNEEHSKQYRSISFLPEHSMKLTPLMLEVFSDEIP

CYP3C1 = assay: zebrafish in vivo liver transcription, semi-quantitative RT-PCR: CYP3C1; conditions: zebrafish, 15 mg/kg intraperitoneally, single dose, 48 hr
Protocol: (§4) Adult zebrafish were purchased from a commercial fish supplier and acclimatized for at least two-weeks in 20 L tanks with flow-through freshwater at 22°C. A single dose of 15 mg/kg of 5α-cyprinol, 5β-cyprinol 27-sulfate, 5α-scymnol or 5β-scymnol-27 sulfate, dissolved in saline, was injected intraperitoneally. A control group was injected with saline. After 48 hr, the animals were decapitated and livers of three fish (n = 5 each group) were removed, pooled and weighed, totalizing 15 fish per group. Fish were not fed throughout the experimental period. […].
(§5) To study the transcription of CYP3C1, ABCB5, PXR, GAPDH and β-actin genes in zebrafish, initial fragments of these genes were identified (Genbank: AW202769, Genbank: BQ284593, Genbank: AAM22215, Genbank: BC083506, Genbank: AF057040, respectively). The PCR primers for CYP3C1 were designed using MacVector Software and primers for MDR1 were designed using Primer 3 Software (Whitehead Institute for Biomedical Research; [75]). Primer pairs for amplifying CYP3C1 fragment were 5'-[…]-3' (sense) and 5'-[…]-3' (antisense) and for amplifying ABCB5 were 5'-[…]-3' (sense) and 5'-[…]-3' (antisense). The PCR primers for PXR were 5'-[…]-3' (sense) and 5'-[…]-3' (antisense), for amplifying GAPDH were 5'-[…]-3' (sense) and 5' […] 3' (antisense) and for β-actin were 5'-[…]-3' (sense) and 5'-[…]-3' (antisense). RNA was isolated using Trizol (Invitrogen) according to manufacturer's instructions. Purity and concentration of RNA of each sample were verified at 260 nm. The RNA integrity was checked by non-denaturing gel electrophoresis using 1 μg of total RNA in each sample.
(§6) Two micrograms of total RNA were reversed transcribed using Ominiscript RT Kit (Qiagen, Valencia, CA, USA). cDNA concentration was checked at 260 nm, and the amount adjusted to 1 μg to perform semi-quantitative RT-PCR. The expected size of the PXR, Cyp3C1, abcb5, GAPDH and β-actin fragments were 577, 477, 218, 234 and 550 bp, respectively. Biotools DNA polymerase (Biotools B&M Labs, S.A., Madrid, Spain) kit was used for the PCR reaction using a thermocycler Personal Mastercycler (Eppendörf) with the following PCR program: 5 cycles of 94°C for 5 s, 72°C for 35 s; 5 cycles of 94°C for 5 s, 70°C for 10 s, 72°C for 35 s; and 23, 24, 35, 15 and 24 cycles (PXR, Cyp3C1, abcb5, GAPDH and β-actin, respectively) of 94°C for 5 s, 61, 54, 48, 49 and 61°C for 10 s (PXR, Cyp3C1, abcb5, GAPDH and β-actin, respectively), and 72°C for 35 s. The PXR, CYP3C1, ABCB5 and GAPDH transcript levels were quantified using Gel-Quant™ (Multiplexed Biotechologies) and β-actin was used to normalize the data. The Shapiro-Wilk W test was used to evaluate normality. When data were parametric the analysis was performed using Student t test; otherwise Mann Whitney U test was applied. […]

[5] = system: MDR1 (tentatively classified as ABCB5 in zebrafish); assay: zebrafish in vivo liver transcription, semi-quantitative RT-PCR: MDR1; conditions: zebrafish, 15 mg/kg intraperitoneally, single dose, 48 hr
Protocol: as §4, §5, §6

[6] = system: glyceraldehyde 3-phosphate dehydrogenase (GAPDH); assay: zebrafish in vivo liver transcription, semi-quantitative RT-PCR: GAPDH; conditions: 15 mg/kg intraperitoneally, single dose, 48 hr
Protocol: Adult zebrafish were purchased from a commercial fish supplier and acclimatized for at least two-weeks in 20 L tanks with flow-through freshwater at 22°C. A single dose of 15 mg/kg of 5α-cyprinol, 5β-cyprinol 27-sulfate, 5α-scymnol or 5β-scymnol-27 sulfate, dissolved in saline, was injected intraperitoneally. A control group was injected with saline. After 48 hr, the animals were decapitated and livers of three fish (n = 5 each group) were removed, pooled and weighed, totalizing 15 fish per group. Fish were not fed throughout the experimental period.
as §5, with “The PCR primers for CYP3C1 were designed using MacVector Software and primers for MDR1 were designed using Primer 3 Software (Whitehead Institute for Biomedical Research; [75]).” left out, “Purity and concentration of RNA of each sample were verified at 260 nm.” left out
The PXR, CYP3C1, ABCB5 and GAPDH transcript levels were quantified using Gel-Quant™ (Multiplexed Biotechologies) and β-actin was used to normalize the data. The Shapiro-Wilk W test was used to evaluate normality. When data were parametric the analysis was performed using Student t test; otherwise Mann Whitney U test was applied.

Zebrafish VDR = target: T2, Zebrafish VDR (Danio rerio, UniProt Q9PTN2); assay: luciferase reporter transactivation assay in HepG2-NTCP cells, GAL4/zfVDR LBD chimera with tk-UAS-Luc; type: cell-based; conditions: screening for activators, at least three concentrations of each drug
T2 sequence (Q9PTN2 121-453): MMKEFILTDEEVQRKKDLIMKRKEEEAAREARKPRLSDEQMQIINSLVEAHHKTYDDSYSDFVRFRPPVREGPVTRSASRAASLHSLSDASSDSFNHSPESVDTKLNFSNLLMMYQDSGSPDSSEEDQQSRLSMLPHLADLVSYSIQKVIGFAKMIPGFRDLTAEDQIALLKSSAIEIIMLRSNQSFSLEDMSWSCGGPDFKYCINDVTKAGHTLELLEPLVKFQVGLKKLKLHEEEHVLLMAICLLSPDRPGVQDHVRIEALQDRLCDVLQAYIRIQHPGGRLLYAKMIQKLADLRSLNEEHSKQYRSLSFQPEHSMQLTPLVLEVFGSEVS

β-actin = assay: zebrafish in vivo liver transcription, semi-quantitative RT-PCR: β-actin; conditions: zebrafish, 15 mg/kg intraperitoneally, single dose, 48 hr
Protocol: as §4, §5, §6

PXR = assay: zebrafish in vivo liver transcription, semi-quantitative RT-PCR: PXR; conditions: zebrafish, 15 mg/kg intraperitoneally, single dose, 48 hr
Protocol: as §4, §5, §6

Sea lamprey VDR = target: T3, Sea lamprey VDR (Petromyzon marinus, UniProt Q7ZZY9); type: cell-based; conditions: screening for activators, at least three concentrations of each drug
T3 sequence (Q7ZZY9 92-406): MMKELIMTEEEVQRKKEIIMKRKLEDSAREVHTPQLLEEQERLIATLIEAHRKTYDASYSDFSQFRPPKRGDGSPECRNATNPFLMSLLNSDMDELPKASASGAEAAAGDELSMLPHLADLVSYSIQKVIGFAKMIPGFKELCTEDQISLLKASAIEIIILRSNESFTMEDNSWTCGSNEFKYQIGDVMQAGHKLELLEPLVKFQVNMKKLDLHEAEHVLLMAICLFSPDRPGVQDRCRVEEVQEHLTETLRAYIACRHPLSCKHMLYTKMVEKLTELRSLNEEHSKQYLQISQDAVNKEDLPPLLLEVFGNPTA

Row | SMILES | effect on EROD activity (EROD activity) | effect on 6β- and 12α-hydroxylation of testosterone [3] | effect on testosterone 6β-hydroxylation [4] | Effect on Xenopus laevis VDR (Xenopus laevis VDR) | Effect on zebrafish VDR (Zebrafish VDR) | Effect on sea lamprey VDR (Sea lamprey VDR) | other results
1 | C=C1/C(=C\C=C2/CCC[C@]3(C)[C@@H]([C@H](C)CCCC(C)(C)O)CC[C@@H]23)C[C@@H](O)C[C@@H]1O [1,25-(OH)2-Vitamin D3, 1α,25-(OH)2-vitamin D3] | did not alter EROD activity | neither activity was substantially increased relative to vehicle control | None of these compounds produced significant increases in testosterone 6β-hydroxylation |  |  |  | effect on EROD activity [1]: found not to affect EROD activity; effect on 6β-hydroxylation of testosterone ([2]; zebrafish primary hepatocytes, calcitriol 1–500 nM): did not increase 6β-hydroxylation of testosterone
2 | CCOC(=O)c1cccc(N)c1 [3-aminoethylbenzoate] |  | neither activity was substantially increased relative to vehicle control |  |  |  |  | 
3 | CC(CCC(O)C(CO)COS(=O)(=O)O)C1CCC2C3C(O)CC4CC(O)CCC4(C)C3CC(O)C12C (stereo not drawn) [5β-scymnol 27-sulfate] |  |  |  | No effect | No effect | No effect | activity at recombinant zebrafish PXR (zebrafish PXR): weaker activator of recombinant zebrafish PXR; liver transcription of CYP3C1 (CYP3C1): 1.33 ± 0.58 arbitrary units normalized to β-actin; liver transcription of MDR1 (ABCB5) [5]: 1.50 ± 0.58 arbitrary units normalized to β-actin; liver transcription of GAPDH [6]: 1.08 ± 0.50 arbitrary units normalized to β-actin; liver transcription of β-actin (β-actin): 39.3 ± 17.5 arbitrary units; liver transcription of PXR (PXR): 0.75 ± 0.33 arbitrary units normalized to β-actin
4 | C[C@@H]1C[C@H]2[C@@H]3CCC4=CC(=O)C=C[C@]4(C)[C@@]3(F)[C@@H](O)C[C@]2(C)[C@@]1(O)C(=O)CO [Dexamethasone] |  | neither activity was substantially increased relative to vehicle control | None of these compounds produced significant increases in testosterone 6β-hydroxylation |  |  |  | 
5 | C[C@@]12CCC[C@H]1[C@@H]1CC[C@H]3C[C@H](O)CC[C@]3(C)[C@H]1CC2 [androstanol, 5α-androstan-3α-ol] | did not alter EROD activity |  | None of these compounds produced significant increases in testosterone 6β-hydroxylation | No effect | No effect | No effect | EC50 ([2]; zebrafish): 20 ± 2.7 µM; maximal rate of testosterone 6β-hydroxylation ([2]; zebrafish primary hepatocytes, 48-hour exposure): 717 pmol/min/mg protein
